Experimental data as given in patent US20070155764A1, “NOVEL SUBSTITUTED PYRIMIDINYLOXY UREAS USEFUL AS INHIBITORS OF PROTEIN KINASES” (KALYPSYS, INC., priority 2005, published 2007).

Tests used:
Format in all cases: biochemical
[1] = target: T1, human B-Raf protein kinase (Homo sapiens, UniProt P15056); test: In vitro B-Raf/Mek1 composite kinase assay; conditions: recombinant GST-tagged human B-Raf (Δ1-415) with inactive Mek1, 2 μM ATP
T1 construct: GST (N); purchased Upstate Inc. 14-530 (B-Raf); 14-420 (Mek1)
T1 sequence (P15056 416-766): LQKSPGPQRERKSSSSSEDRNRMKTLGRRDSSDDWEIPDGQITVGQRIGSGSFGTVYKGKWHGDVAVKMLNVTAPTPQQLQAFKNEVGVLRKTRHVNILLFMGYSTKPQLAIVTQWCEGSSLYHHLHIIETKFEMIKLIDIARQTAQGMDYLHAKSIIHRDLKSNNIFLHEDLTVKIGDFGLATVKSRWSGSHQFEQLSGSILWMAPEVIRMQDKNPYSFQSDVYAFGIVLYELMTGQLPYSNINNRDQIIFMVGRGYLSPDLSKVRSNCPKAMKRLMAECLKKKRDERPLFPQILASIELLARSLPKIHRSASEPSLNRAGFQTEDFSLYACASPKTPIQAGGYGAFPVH
Outline: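 Luminescent ATP-depletion assay using recombinant N-terminal GST-tagged human B-Raf (Δ1-415, 1 ng/well) in MOPS pH 7.2 buffer with 10 mM MgCl2. Compounds were preincubated 15 min at about 22° C, then the reaction ran 2 h before PKLight readout. Efficacy is expressed as percentage of positive-control (Bay 43-9006) activity.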

VEGFR2 kinase = target: T2, VEGFR2 kinase (Homo sapiens, UniProt P35968); test: In vitro VEGFR2 kinase assay; conditions: ADP Quest assay, poly Glu:Tyr substrate, 60 μM ATP
T2 construct: purchased Invitrogen Inc PV3660
T2 sequence (P35968 20-1356): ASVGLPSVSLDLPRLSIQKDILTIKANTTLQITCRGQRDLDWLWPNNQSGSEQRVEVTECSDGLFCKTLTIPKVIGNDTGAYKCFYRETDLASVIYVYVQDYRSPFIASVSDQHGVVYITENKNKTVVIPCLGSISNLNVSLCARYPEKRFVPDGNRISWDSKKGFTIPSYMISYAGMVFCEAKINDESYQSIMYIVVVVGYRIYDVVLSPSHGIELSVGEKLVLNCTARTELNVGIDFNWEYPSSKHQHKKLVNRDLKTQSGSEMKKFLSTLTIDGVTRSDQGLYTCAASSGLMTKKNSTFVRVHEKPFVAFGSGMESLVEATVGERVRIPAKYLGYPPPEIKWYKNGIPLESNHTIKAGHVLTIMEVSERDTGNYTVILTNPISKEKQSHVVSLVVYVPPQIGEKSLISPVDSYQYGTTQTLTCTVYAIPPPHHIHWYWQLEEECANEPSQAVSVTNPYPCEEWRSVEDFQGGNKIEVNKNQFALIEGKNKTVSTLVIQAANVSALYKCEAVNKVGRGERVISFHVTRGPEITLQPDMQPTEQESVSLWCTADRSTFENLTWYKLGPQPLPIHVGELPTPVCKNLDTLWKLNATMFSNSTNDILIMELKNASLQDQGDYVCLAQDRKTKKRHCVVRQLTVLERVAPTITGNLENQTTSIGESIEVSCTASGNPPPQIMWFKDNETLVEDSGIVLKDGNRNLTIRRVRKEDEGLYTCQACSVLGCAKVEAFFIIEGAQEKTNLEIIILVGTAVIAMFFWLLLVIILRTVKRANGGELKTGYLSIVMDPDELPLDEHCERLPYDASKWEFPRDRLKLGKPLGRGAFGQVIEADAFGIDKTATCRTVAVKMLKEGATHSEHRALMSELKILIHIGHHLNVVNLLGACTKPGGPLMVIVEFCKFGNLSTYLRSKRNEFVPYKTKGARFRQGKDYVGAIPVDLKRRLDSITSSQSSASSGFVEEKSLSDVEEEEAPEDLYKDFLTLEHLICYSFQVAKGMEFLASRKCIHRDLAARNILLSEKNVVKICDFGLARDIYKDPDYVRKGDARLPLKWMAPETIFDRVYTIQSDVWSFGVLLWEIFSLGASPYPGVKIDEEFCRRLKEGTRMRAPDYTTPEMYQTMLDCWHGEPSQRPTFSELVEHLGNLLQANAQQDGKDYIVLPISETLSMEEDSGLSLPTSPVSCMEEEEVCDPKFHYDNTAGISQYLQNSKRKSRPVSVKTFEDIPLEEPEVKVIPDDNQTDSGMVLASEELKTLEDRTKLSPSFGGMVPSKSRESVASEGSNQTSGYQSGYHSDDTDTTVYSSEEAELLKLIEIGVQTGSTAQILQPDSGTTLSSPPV
Outline: (§1)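 Compound was preincubated 10 min at ~22 °C with 20 ng VEGFR2 or 25 ng PDGFRβ, then poly Glu:Tyr (4:1) substrate (0.25 μg) with 60 μM ATP (in added buffer) was reacted 2 h at 30 °C. ADP Quest resorufin fluorescence was read (ex 530/em 580) after 30 min. Efficacy is expressed as percent of positive-control (Bay 43-9006) activity, with DMSO as negative control.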

PDGFRβ kinase = target: T3, PDGFRβ kinase (Homo sapiens, UniProt P09619); test: In vitro PDGFRβ kinase assay; conditions: ADP Quest assay, poly Glu:Tyr substrate, 60 μM ATP
T3 construct: purchased Invitrogen Inc. P3082
T3 sequence (P09619 33-1106): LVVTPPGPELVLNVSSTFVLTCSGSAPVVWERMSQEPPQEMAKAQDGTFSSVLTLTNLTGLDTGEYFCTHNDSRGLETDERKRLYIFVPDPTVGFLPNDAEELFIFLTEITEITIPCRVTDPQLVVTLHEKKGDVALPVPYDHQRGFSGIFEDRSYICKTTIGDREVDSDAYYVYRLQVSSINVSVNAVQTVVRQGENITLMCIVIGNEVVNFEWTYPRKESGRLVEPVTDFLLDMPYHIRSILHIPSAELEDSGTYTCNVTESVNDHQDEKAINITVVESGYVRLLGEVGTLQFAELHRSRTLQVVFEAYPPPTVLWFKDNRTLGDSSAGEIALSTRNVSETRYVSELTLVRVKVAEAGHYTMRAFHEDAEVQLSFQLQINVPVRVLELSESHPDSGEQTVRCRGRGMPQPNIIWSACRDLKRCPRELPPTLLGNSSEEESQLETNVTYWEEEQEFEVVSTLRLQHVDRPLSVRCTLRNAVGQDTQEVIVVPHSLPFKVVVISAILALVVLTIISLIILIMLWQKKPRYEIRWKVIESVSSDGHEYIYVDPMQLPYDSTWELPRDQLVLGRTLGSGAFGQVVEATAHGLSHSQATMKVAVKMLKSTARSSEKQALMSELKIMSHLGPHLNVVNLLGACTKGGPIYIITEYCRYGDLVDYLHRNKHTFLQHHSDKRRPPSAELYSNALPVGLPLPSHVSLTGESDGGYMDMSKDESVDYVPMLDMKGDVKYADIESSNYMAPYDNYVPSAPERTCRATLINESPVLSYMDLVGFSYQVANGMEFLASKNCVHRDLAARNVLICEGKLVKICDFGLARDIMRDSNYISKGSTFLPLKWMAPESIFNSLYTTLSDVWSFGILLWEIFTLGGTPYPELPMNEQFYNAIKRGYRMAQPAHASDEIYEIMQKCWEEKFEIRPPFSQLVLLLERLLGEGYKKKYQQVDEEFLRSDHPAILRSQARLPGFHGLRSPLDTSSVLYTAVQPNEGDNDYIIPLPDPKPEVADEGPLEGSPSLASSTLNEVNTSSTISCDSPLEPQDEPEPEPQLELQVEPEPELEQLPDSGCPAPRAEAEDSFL
Outline: as §1

`Cn1cc(-c2nccc(Oc3cccc(NC(=O)Nc4ccc(OC(F)(F)F)cc4)c3)n2)cn1` [Example 79, 1-(3-(2-(1-Methyl-1H-pyrazol-4-yl)pyrimidin-4-yloxy)phenyl)-3-(4-(trifluoromethoxy)phenyl)urea] showed an IC50 [1] of no more than 10 µM, an IC50 (VEGFR2 kinase) of no more than 10 µM and an IC50 (PDGFRβ kinase) of no more than 10 µM.
Compound `Cn1cc(-c2nccc(Oc3cccc(NC(=O)Nc4ccc(C(F)(F)F)cc4)c3)n2)cn1` [Example 80, 1-(3-(2-(1-Methyl-1H-pyrazol-4-yl)pyrimidin-4-yloxy)phenyl)-3-(4-(trifluoromethyl)phenyl)urea] has an IC50 [1] of no more than 10 µM, an IC50 (VEGFR2 kinase) of no more than 10 µM and an IC50 (PDGFRβ kinase) of no more than 10 µM.
In the case of `CCOC(=O)c1coc(-c2cc(Oc3cccc(NC(=O)Nc4ccc(Cl)c(C(F)(F)F)c4)c3)ncn2)n1` [Example 81, Ethyl 2-(6-(3-(3-(4-chloro-3-(trifluoromethyl)phenyl)ureido)phenoxy)pyrimidin-4-yl)oxazole-4-carboxylate], the IC50 [1] is reported as no more than 10 µM, the IC50 (VEGFR2 kinase) is reported as no more than 10 µM and the IC50 (PDGFRβ kinase) is reported as no more than 10 µM.
For `NC(=O)c1coc(-c2cc(Oc3cccc(NC(=O)Nc4ccc(Cl)c(C(F)(F)F)c4)c3)ncn2)n1` [Example 82, 2-(6-(3-(3-(4-Chloro-3-(trifluoromethyl)phenyl)ureido)phenoxy)pyrimidin-4-yl)oxazole-4-carboxamide], the IC50 [1] was no more than 10 µM, the IC50 (VEGFR2 kinase) was no more than 10 µM and the IC50 (PDGFRβ kinase) was no more than 10 µM.
In the case of `Cn1cc(-c2nccc(Oc3cccc(NC(=O)Nc4cccc(OC(F)(F)F)c4)c3)n2)cn1` [Example 83, 1-(3-(2-(1-Methyl-1H-pyrazol-4-yl)pyrimidin-4-yloxy)phenyl)-3-(3-(trifluoromethoxy)phenyl)urea], the IC50 [1] is reported as no more than 10 µM, the IC50 (VEGFR2 kinase) is reported as no more than 10 µM and the IC50 (PDGFRβ kinase) is reported as no more than 10 µM.
Work on `Cn1cc(-c2nccc(Oc3cccc(NC(=O)Nc4cc(C(F)(F)F)cc(C(F)(F)F)c4)c3)n2)cn1` [Example 84, 1-(3,5-Bis(trifluoromethyl)phenyl)-3-(3-(2-(1-methyl-1H-pyrazol-4-yl)pyrimidin-4-yloxy)phenyl)urea] yielded an IC50 [1] of no more than 10 µM, an IC50 (VEGFR2 kinase) of no more than 10 µM and an IC50 (PDGFRβ kinase) of no more than 10 µM.
`O=C(Nc1cccc(Oc2cc(-c3ncc[nH]3)ncn2)c1)Nc1ccc(Cl)c(C(F)(F)F)c1` [Example 85, 1-(3-(6-(1H-Imidazol-2-yl)pyrimidin-4-yloxy)phenyl)-3-(4-chloro-3-(trifluoromethyl)phenyl)urea] showed an IC50 [1] of no more than 10 µM, an IC50 (VEGFR2 kinase) of no more than 10 µM and an IC50 (PDGFRβ kinase) of no more than 10 µM.
In the case of `C#Cc1cccc(NC(=O)Nc2cccc(Oc3cc(-c4cnn(C)c4)ncn3)c2)c1` [Example 86, 1-(3-Ethynylphenyl)-3-(3-(6-(1-methyl-1H-pyrazol-4-yl)pyrimidin-4-yloxy)phenyl)urea], the IC50 [1] is reported as no more than 10 µM, the IC50 (VEGFR2 kinase) is reported as no more than 10 µM and the IC50 (PDGFRβ kinase) is reported as no more than 10 µM.
In the case of `Cn1cc(-c2nccc(Oc3ccc(NC(=O)Nc4ccc(Cl)c(C(F)(F)F)c4)c(F)c3)n2)cn1` [Example 88, 1-(4-Chloro-3-(trifluoromethyl)phenyl)-3-(2-fluoro-4-(2-(1-methyl-1H-pyrazol-4-yl)pyrimidin-4-yloxy)phenyl)urea], the IC50 [1] is reported as no more than 10 µM, the IC50 (VEGFR2 kinase) is reported as no more than 10 µM and the IC50 (PDGFRβ kinase) is reported as no more than 10 µM.
In the case of `O=C(Nc1ccc(C(F)(F)F)cc1)Nc1cccc(Oc2cc(-c3nnco3)ncn2)c1` [Example 89, 1-(3-(6-(1,3,4-Oxadiazol-2-yl)pyrimidin-4-yloxy)phenyl)-3-(4-(trifluoromethyl)phenyl)urea], the IC50 [1] is reported as no more than 10 µM, the IC50 (VEGFR2 kinase) is reported as no more than 10 µM and the IC50 (PDGFRβ kinase) is reported as no more than 10 µM.
With `Cn1cc(-c2cc(Oc3ccc(F)c(NC(=O)Nc4ccc(C(F)(F)F)cc4F)c3)ncn2)cn1` [Example 90, 1-(2-Fluoro-4-(trifluoromethyl)phenyl)-3-(2-fluoro-5-(6-(1-methyl-1H-pyrazol-4-yl)pyrimidin-4-yloxy)phenyl)urea] the IC50 [1] was no more than 10 µM, the IC50 (VEGFR2 kinase) was no more than 10 µM and the IC50 (PDGFRβ kinase) was no more than 10 µM.
Work on `Cn1cc(-c2cc(Oc3cccc(NC(=O)Nc4ccc(C(F)(F)F)cc4F)c3)ncn2)cn1` [Example 91, 1-(2-Fluoro-4-(trifluoromethyl)phenyl)-3-(3-(6-(1-methyl-1H-pyrazol-4-yl)pyrimidin-4-yloxy)phenyl)urea] yielded an IC50 [1] of no more than 10 µM, an IC50 (VEGFR2 kinase) of no more than 10 µM and an IC50 (PDGFRβ kinase) of no more than 10 µM.
For `Cn1cc(-c2cc(Oc3ccc(NC(=O)Nc4ccc(Cl)c(C(F)(F)F)c4)c(F)c3)ncn2)cn1` [Example 92, 1-(4-Chloro-3-(trifluoromethyl)phenyl)-3-(2-fluoro-4-(6-(1-methyl-1H-pyrazol-4-yl)pyrimidin-4-yloxy)phenyl)urea], the IC50 [1] was no more than 10 µM, the IC50 (VEGFR2 kinase) was no more than 10 µM and the IC50 (PDGFRβ kinase) was no more than 10 µM.
`Cn1cc(-c2nccc(Oc3ccc(NC(=O)Nc4cccc(C(F)(F)F)c4)c(F)c3)n2)cn1` [Example 93, 1-(2-Fluoro-4-(2-(1-methyl-1H-pyrazol-4-yl)pyrimidin-4-yloxy)phenyl)-3-(3-(trifluoromethyl)phenyl)urea] showed an IC50 [1] of no more than 10 µM, an IC50 (VEGFR2 kinase) of no more than 10 µM and an IC50 (PDGFRβ kinase) of no more than 10 µM.
`COc1ccc(C(F)(F)F)cc1NC(=O)Nc1cccc(Oc2cc(-c3cnn(C)c3)ncn2)c1` [Example 94, 1-(2-Methoxy-5-(trifluoromethyl)phenyl)-3-(3-(6-(1-methyl-1H-pyrazol-4-yl)pyrimidin-4-yloxy)phenyl)urea] showed an IC50 [1] of no more than 10 µM, an IC50 (VEGFR2 kinase) of no more than 10 µM and an IC50 (PDGFRβ kinase) of no more than 10 µM.
Compound `COc1ccc(C(F)(F)F)cc1NC(=O)Nc1cc(Oc2cc(-c3cnn(C)c3)ncn2)ccc1F` [Example 95, 1-(2-Fluoro-5-(6-(1-methyl-1H-pyrazol-4-yl)pyrimidin-4-yloxy)phenyl)-3-(2-methoxy-5-(trifluoromethyl)phenyl)urea] has an IC50 [1] of no more than 10 µM, an IC50 (VEGFR2 kinase) of no more than 10 µM and an IC50 (PDGFRβ kinase) of no more than 10 µM.
In the case of `Cn1cc(-c2cc(Oc3cccc(NC(=O)Nc4ccc(C(F)(F)F)cc4Cl)c3)ncn2)cn1` [Example 96, 1-(2-Chloro-4-(trifluoromethyl)phenyl)-3-(3-(6-(1-methyl-1H-pyrazol-4-yl)pyrimidin-4-yloxy)phenyl)urea], the IC50 [1] is reported as no more than 10 µM, the IC50 (VEGFR2 kinase) is reported as no more than 10 µM and the IC50 (PDGFRβ kinase) is reported as no more than 10 µM.
Compound `Cn1cc(-c2cc(Oc3ccc(F)c(NC(=O)Nc4ccc(C(F)(F)F)cc4Cl)c3)ncn2)cn1` [Example 97, 1-(2-Chloro-4-(trifluoromethyl)phenyl)-3-(2-fluoro-5-(6-(1-methyl-1H-pyrazol-4-yl)pyrimidin-4-yloxy)phenyl)urea] has an IC50 [1] of no more than 10 µM, an IC50 (VEGFR2 kinase) of no more than 10 µM and an IC50 (PDGFRβ kinase) of no more than 10 µM.
With `Cn1cc(-c2nccc(Oc3cccc(NC(=O)Nc4cccc(C(F)(F)F)c4)c3)n2)cn1` [Example 98, 1-(3-(2-(1-Methyl-1H-pyrazol-4-yl)pyrimidin-4-yloxy)phenyl)-3-(3-(trifluoromethyl)phenyl)urea] the IC50 [1] was no more than 10 µM, the IC50 (VEGFR2 kinase) was no more than 10 µM and the IC50 (PDGFRβ kinase) was no more than 10 µM.
For `Cn1cc(-c2nccc(Oc3ccc(NC(=O)Nc4cccc(C(F)(F)F)c4)cc3)n2)cn1` [Example 99, 1-(4-(2-(1-Methyl-1H-pyrazol-4-yl)pyrimidin-4-yloxy)phenyl)-3-(3-(trifluoromethyl)phenyl)urea], the IC50 [1] was no more than 10 µM, the IC50 (VEGFR2 kinase) was no more than 10 µM and the IC50 (PDGFRβ kinase) was no more than 10 µM.
Compound `Cn1cc(-c2cc(Oc3ccc(F)c(NC(=O)Nc4ccc(C(F)(F)F)cc4)c3)ncn2)cn1` [Example 100, 1-(2-Fluoro-5-(6-(1-methyl-1H-pyrazol-4-yl)pyrimidin-4-yloxy)phenyl)-3-(4-(trifluoromethyl)phenyl)urea] has an IC50 [1] of no more than 10 µM, an IC50 (VEGFR2 kinase) of no more than 10 µM and an IC50 (PDGFRβ kinase) of no more than 10 µM.
For `Cn1cc(-c2cc(Oc3ccc(NC(=O)Nc4ccc(C(F)(F)F)cc4)cc3)ncn2)cn1` [Example 101, 1-(4-(6-(1-Methyl-1H-pyrazol-4-yl)pyrimidin-4-yloxy)phenyl)-3-(4-(trifluoromethyl)phenyl)urea], the IC50 [1] was greater than 10 µM, the IC50 (VEGFR2 kinase) was no more than 10 µM and the IC50 (PDGFRβ kinase) was no more than 10 µM.
